From patent publication US11891644B2, “T cells with reduced surface fucosylation and methods of making and using the same” (Seagen Inc., priority 2017, dated 2024)

Legend:
[1] = tested on: A20 mouse lymphoma cells; test: Growth of s.c. implanted A20 lymphoma in Balb/c mice receiving 2FF in drinking water; format: in vivo, mouse (Balb/c); details: 20 mM 2FF in drinking water from day 0; s.c. A20 tumors, 20 days; versus control group (FIG. 2)
Method: 20 Balb/c mice were implanted with A20 cells (0.2 mL of 5×10^6 cells s.c./mouse), one group of mice consisting of 10 animals received 2FF (20 mM in drinking water) from day 0 to termination of study. A20 lymphoma tumors were allowed to grow out and mice sacrificed after 20 days.

[2] = tested on: CD3+ T cells; test: Surface fucosylation of CD3+ T cells isolated from spleens of A20 tumor bearing mice, flow cytometry (surface LCA staining); format: in vivo, mouse (Balb/c); details: T cells from A20 tumor bearing mice treated with 20 mM 2FF in drinking water, LCA staining (FIG. 3)
Method: Mice from the untreated and 2FF treated group were sacrificed and spleens taken for CD3 T-cell enrichment. In brief spleens were collected in RPMI containing 2% FBS and cell suspensions passed through a 70 μm mesh nylon strainer washed with 2% RPMI. Cells were suspended in 10 mls of ACK lysis buffer and incubate for 5 min in this buffer to get rid of RBCs. Cells were centrifuged at 300×g for 5 minutes and re-suspended in PBS containing 2% FBS and 1 mM EDTA. T-cells were isolated using EasySep mouse T cell isolation kit as per the manufactures recommendation. Briefly, cells were re-suspended at 10^8 cells/mL to which 50 μL/mL of rat serum was added. Cells were then transferred into a 5 mL polystyrene tube and 50 μL of isolation cocktail added to the sample followed by room temperature incubation for 10 minutes. Rapid spheres were vortexed and 75 μL/mls added followed by room temperature incubation for 2.5 minutes. Sample volume was topped off to 2.5 mL and incubated with the cell isolation magnet for 2.5 minutes. The magnet was inverted and CD3^+ T cells collected and washed twice in RPMI and resuspended at 21.2×10^6 cells/ml.

[3] = tested on: A20 cells; test: Anti-tumor activity of purified T cells or 2FF in s.c. A20 tumor bearing Balb/c mice; format: in vivo, mouse (Balb/c); details: treatment started at 100 mm^3 tumor; daily 20 mM 2FF in drinking water, or 2×10^6 T cells IP; versus untreated animals or T cells from untreated tumor bearing mice
Method: One group received no treatment, the other three group were treated when the A20 cells reached 100 mm^3 and were treated either with daily 20 mM 2FF in the drinking water, 2×10^6 T-cells isolated from control tumor bearing mice injected IP, or 2×10^6 T-cells isolated from 2FF tumor bearing mice injected IP. Animals were monitored for subsequent tumor progression.

[4] = tested on: primary human T cells; test: Ex-vivo expansion of human peripheral T cells with 2FF, surface fucosylation by flow cytometry (LCA surface staining); format: cell-based; details: 100 μM 2FF, 10 days in culture, CD3/CD28 beads + IL2; LCA surface staining (FIG. 4)
Method: T cells were isolated from 10 mL of whole blood which was centrifuged first at 1200 rpm (300×g) for 10 min (without brakes). The top layer containing platelets was removed carefully without disrupting the white blood cell layer. Then RosetteSep™ Human T-Cell Enrichment Cocktail (Pan T Cells from StemCell technologies) was added to the remaining blood (500 μLAO mL blood). This was incubated for 20 min and then 1 mL FBS was added along with 10 mL PBS. Histopaque (20-25 mL) placed in a 50 mL Falcon the prepared blood/PBS solution was overlaid very slowly. This was centrifuged with no brake (25° C., 1500 rpm, 25 min). The top layer was removed and the T cells in the buffy coat layer were then removed to a new 50 mL tube. […]
For in vitro culturing of primary human T cell culture, isolated T cells were re-suspended in T cell media (RPMI media supplemented with 10% Fetal calf serum (FCS), 1% Penicillin and moved into two T25 flasks, one with or and one without 100 μM 2-deoxy-2-fluoro-L-fucose. CD3/CD28 antibody coated beads (20 μL/flask) were added to activate the T cells. After 24 hr interleukin 2 (IL2) was added (100 ng/μL). Each time the cells were passaged new IL2 and 2-deoxy-2-fluoro-L-fucose were added. After 10 days in culture, expanded T cells cultured in 2FF were assessed for changes in surface fucosylation by flow cytometry (FIG. 4).

`C[C@H](O)[C@@H](O)[C@@H](O)[C@H](F)C=O` [2FF, 2-deoxy-2-fluoro-L-fucose] was tested, and the tumor progression [1] was “significant delay in tumor progression”, the “surface fucosylation of isolated CD3+ T cells” value [2] was “significant reduction in surface fucosylation” and the tumor growth [3] was “significantly delayed tumor growth and in some cases tumor regression”. The “decrease in surface fucosylation” value [4] was “about 85%”.
